Test results as given in patent publication US9328125B2, “Bivalent AMPA receptor positive allosteric modulators” (The Board of Regents of the University of Texas System, priority 2012, dated 2016).
Where two headings read alike, the source gives them in different places.

Key:
[1] = system: PCP-induced caspase-3 activity; experiment: PCP-induced caspase-3 enzyme activity in organotypic cortical-striatal slices, modulation of the (±)AMPA effect; format: cell-based, rat; settings: for modulation of AMPA effect on PCP-induced caspase-3 activity, in words: AMPA 1 μM, FIG. 2A-2B; for IC50: Rattus norvegicus
Method: The inventors have designed and chemically synthesized a class of new bivalent AMPAR ligands (see examples in Table 1). […] The neuroprotective effect of (±)APMA on PCP-induced caspase-3 activities was potentiated by cyclothiazide (CTZ) and aniracetam, two existing AMPAR ligands (approximate IC50 1-3 μM, FIG. 2A for CTZ).
B. Measurement of Caspase-3 Enzyme Activities
Compounds showing significant AMPAR PAM effects on glutamate-induced calcium influx in HEK293 expressing hGluA1i/3i were further tested for their ability to prevent PCP-induced caspase-3 activation in our established in vitro organotypic slice model (Wang et al., Neuropsychopharmacology 32(5): 1178-1194, 2007). Initial screening includes two steps. In step one, all candidates were tested in a single experiment to determine an appropriate approximate concentration range for its effect on PCP-induced caspase-3 activity by adding eight serial concentrations of the compound at log intervals (0, 0.0001-10 μM). Compounds showing promising ˜IC50 (<10 μM) and slope (0.8-1.20) was further screened in a paradigm in which each selected compound was tested in 3 independent experiments to determine its IC50 and slope values by adding eight serial concentrations of the compound at approximately half-log intervals. For all initial screening experiments, rat organotypic brain slice cultures were prepared as previously described (Wang et al., Neuropsychopharmacology 32(5): 1178-1194, 2007). All experiments were executed on DIV10. In each experiment, the slices were pre-treated with the solution vehicle (0.1% DMSO) or 6 serial concentrations of the new compounds for 15 min, followed with (±)APMA (1 μM) (or its vehicle, 0.1% DMSO) for another 15 min. PCP (3 μM) or its vehicle (saline) was added and incubation continued for 6 hrs. The superficial cortical layers of each treated slice were harvested with the aid of an inverted microscopy and placed into ice-cold lysis buffer. Supernatants were collected and caspase-3 activity measured as described previously (Wang et al., Neuropsychopharmacology 32(5): 1178-1194, 2007). Caspase-3 activity was measured over 60 min and calculated as the difference between the substrate degradation rate in samples containing and those not containing Z-DEVD-FMK, a selective caspase-3 inhibitor. Data are expressed as DEVDase activity (AFC pmoles/mg protein/60 min). Protein was measured by the bicinchoninic acid (BCA) technique (Smith et al., 1985), using bovine serum albumin as standards. Each activity measurement was averaged from duplicate samples. Baseline activity (saline treated) was subtracted from all treatments. The caspase-3 activity of in slices incubated with PCP alone served as a positive control. Each compound's activity was normalized to the protective effect of (±)AMPA against PCP (100%). IC50 and slope values were analyzed and determined with the SigmaPlot four-parameter equation as described previously (Petukhov et al., J Med Chem 47(12): 3009-3018, 2004). Each compound's IC50 and slope values were determined from data in at least 3 individual experiments. Group data is reported as mean±SEM.

AMPA receptor = experiment: Glutamate (100 μM)-evoked calcium influx in DIV9 dissociated rat forebrain neurons; format: cell-based; settings: for EC50 / Emax (%) / pEC50 (-logEC50): Glutamate (100 μM)-evoked Ca2+ influx; for enhancement of glutamate-evoked calcium influx, in words: glutamate 100 μM, DIV9 dissociated rat forebrain neurons cultured on PND1
Description: Fluorometric readings were taken from each well every 1.7 seconds for 20 seconds before any addition to record baseline value and for 70 seconds after addition of any compound(s) to monitor the induced changes of calcium influx. Each well's peak fluorescence reading after addition of compound(s) represents effect of a certain concentration of a given compound(s) after subtracting the average baseline fluorescence. Peak fluorometric reading from duplicate or triplicate wells was averaged, and represents the effect of a certain concentration on calcium influx after subtracting control value. […] points were fitted with a sigmoidal function (bottom asymptote=100, nHill=1) by using Prism from GraphPad (San Diego, Calif.) to determine the compound's EC50 (affinity or potency). Each compound's EC50 was summarized from at least 3 individual experiments and presented as the mean±SE.

[2] = system: PCP-induced cleaved caspase-3 immunoreactive neurons in frontal cortex (M2/1); experiment: Image analysis of cleaved caspase-3 immunoreactive neurons in frontal cortex (M2/1) of PND7 rats exposed to PCP; format: in vivo, rat
Method: Cleaved caspase-3 immunoreactive neurons, 8 hrs on PND7 after Saline (A) or PCP (10 mg/kg, sc, B-E) without (A-B) or with (C-E) pretreatment (30 min prior to PCP) of HJC-1-22 (C, 0.1 mg/kg; D, 1 mg/kg; E, 10 mg/kg, sc) were shown.
C. Image Analysis of Cleaved Caspase-3 Immunoreactive Neurons
PCP induces developmental neuroapoptosis via caspase-3 activation in vulnerable neurons (Wang et al., Neuropsychopharmacology 32(5): 1178-1194, 2007). Caspase-3 activation in vivo can be observed by immunohistochemistry with specific antibodies against cleaved caspase-3 protein and quantified by image analysis of cleaved caspase-3 immunoreactive neurons in specific brain region(s) or sub-region(s) in developing brain. Compounds showing significant AMPAR PAM effects on glutamate-induced calcium influx in HEK293 expressing hGluA1i/3i and significant preventive effect on PCP-induced caspase-3 enzyme activities in organotypic slices were further defined their abilities to block PCP-induced apoptosis in vivo.
PND7 rat pups were used in the in vivo studies. […]
In step 1, each candidate was tested in two (n=2) individual experiments by using PND7 rat pups from 2 different liters. […] The activity percentages (%) of each dose vs. PCP were calculated to estimate its IC50 which was used to determine its in vivo effective dose range for the step 2 study. […]

morphine tolerance = experiment: Morphine tolerance, tail-flick test; format: in vivo, mouse; settings: 10 mg/kg
Method: The tail-flick test was used to determine basal nociception and morphine antinociception as described previously (Wang et al., J Neurosci 21:1779-86, 2001; Tang et al., J Pharmacol Exp Ther 317:901-909, 2006). In brief, One third of the distal portion of mouse tail was immersed into a water bath maintained at 52° C., and the latency of a quick tail-flick response was recorded. Morphine-antinociception was evaluated 30 min after a test dose of morphine (10 mg/kg s.c. unless otherwise stated) and is expressed as the percentage of maximal possible effect (MPE). MPE %=100%×(postdrug latency−predrug latency)/(cutoff−predrug latency). A 12-s cutoff time was used to prevent tissue damage (FIG. 9A and FIG. 10A).
(§1) G. Chronic Opioid Tolerance and Dependence.
(§2) To induce chronic opioid tolerance and dependence, mice were treated with morphine (10 mg/kg s.c., given at 8:00 AM and 6:00 PM) for 5 days (Herz and Teschemacher, Experientia 29:64-65, 1973). Control mice received an equal number and volume of injections with saline. Morphine tolerance and naloxone-precipitated withdrawal were evaluated. Haloperidol (0.1-1.0 mg/kg i.p. or p.o.) was given 30 min before the test dose of morphine or naloxone (FIG. 9B and FIG. 10B).

[3] = system: morphine physical dependence; experiment: Morphine physical dependence, naloxone-precipitated withdrawal; format: in vivo, mice; settings: 10 mg/kg
Method: as §1, §2

[4] = existing AMPAR ligands, FIG. 2A for CTZ, read-out: approximate IC50, potentiation of neuroprotective effect of (±)AMPA on PCP-induced caspase-3 activities
[5] = organotypic slices, (±)AMPA 1 μM, PCP 3 μM, read-out: IC50, modulation of (±)AMPA effect on PCP-induced caspase-3 activity

| Compound | modulation of AMPA effect on PCP-induced caspase-3 activity, in words ([1]; PCP 3 μM) | EC50 (AMPA receptor) [nM] | Emax (%) (AMPA receptor) | pEC50 (-logEC50) (AMPA receptor) | enhancement of glutamate-evoked calcium influx, in words (AMPA receptor) | further results |
| --- | --- | --- | --- | --- | --- | --- |
| NS(=O)(=O)c1cc2c(cc1Cl)NC(C1CC3C=CC1C3)NS2(=O)=O (centres unmarked) [CTZ, cyclothiazide, reference compound] | concentration-dependent fashion |  |  |  |  | IC50 [1, 4]: 1000 to 3000 nM |
| CC(C)S(=O)(=O)NC[C@H](C)c1ccc(-c2ccc(CCN3CCCC3=O)cc2)cc1 [HJC0173, Propane-2-sulfonic acid (2-{4′-[2-(2-oxo-pyrrolidin-1-yl)-ethyl]-biphenyl-4-yl}-propyl)amide] |  | 4.02 | 127.1 | 8.39 |  |  |
| CC(C)S(=O)(=O)NC[C@H](C)c1ccc(-n2ccc3cc(C(=O)N4CCCC4)ccc32)cc1 [HJC0210, Propane-2-sulfonic acid (2-{4-[5-(pyrrolidine-1-carbonyl)-indol-1-yl]-phenyl}-propyl)amide] |  | 0.06 | 157.5 | 10.21 | enhanced glutamate (100 μM)-evoked calcium influx in a concentration-dependent manner |  |
| CC(C)S(=O)(=O)NC[C@H](C)c1ccc(-n2ccc3ncccc32)cc1 [HJC0229, Propane-2-sulfonic acid [2-(4-pyrrolo[3,2-b]pyridin-1-yl-phenyl)-propyl]amide] |  | 8.76 | 168.9 | 8.06 |  |  |
| CC(C)S(=O)(=O)NC[C@H](C)c1ccc(-c2ccnc(C(=O)N3CCCC3)c2)cc1 [HJC-1-22, Propane-2-sulfonic acid (2-{4-[2-(pyrrolidine-1-carbonyl)-pyridin-4-yl]phenyl}-propyl)-amide] | displayed more potent activity than LY451395 | 6.53 | 170.0 | 8.28 | enhanced glutamate (100 μM)-evoked calcium influx in a concentration-dependent manner | IC50 [1, 5]: 15 nM; prevention of PCP (10 mg/kg)-induced caspase-3 activation in frontal cortex ([2]; 10 mg/kg sc, 30 min prior to PCP (10 mg/kg, sc)): 85%; effect on PCP-induced cleaved caspase-3 immunoreactive neurons in frontal cortex (M2/1), in words ([2]; 0.1, 1, 10 mg/kg sc, 30 min prior to PCP, 8 hrs): significantly reduced PCP-induced cleaved caspase-3 immunoreactive neurons; reversal of established morphine tolerance (morphine tolerance; FIG. 9A): reversed established morphine tolerance; prevention of development of morphine tolerance (morphine tolerance; FIG. 10A): prevented the development of morphine tolerance; reversal of morphine physical dependence ([3]; FIG. 9B): partially reversed physical dependence; prevention of morphine physical dependence ([3]; FIG. 10B): partially prevented physical dependence |
| CC(C)S(=O)(=O)NC[C@H](C)c1ccc(-n2ccc3cc(C(=O)N4CCCCC4)ccc32)cc1 [HJC-1-24, Propane-2-sulfonic acid (2-{4-[5-(piperidine-1-carbonyl)-indol-1-yl]-phenyl}-propyl)amide] | displayed more potent activity than LY451395 |  |  |  |  | IC50 [1, 5]: 5 nM; fold more potent than CTZ (IC50, caspase-3 activity) ([1]; versus CTZ): at least 200 fold |
| CC(C)S(=O)(=O)NC[C@H](C)c1ccc(-c2ccc(CCNS(C)(=O)=O)cc2)cc1 [LY451395, reference compound] |  |  |  |  | enhanced glutamate (100 μM)-evoked calcium influx in a concentration-dependent manner |  |
| COc1ccc(C(=O)N2CCCC2=O)cc1 [aniracetam, reference compound] |  |  |  |  |  | IC50 [1, 4]: 1000 to 3000 nM |
